Calls of active or inactive are those of the source. No cut-off for these calls is given here.

In one assay the test system is B16-F10. Description: Ability to reduce the invasiveness of tumor in B16F10 cells. In kind it is functional, cell-based. The note with it: Mus musculus.
For `O=C1NC(=S)S/C1=C\c1cc2ccccc2cc1OCc1c(F)cccc1Cl`, the result was Active. Same read-out and setting: the value for `O=C1NC(=S)S/C1=C\c1cc(Br)ccc1OCc1ccccc1Br` was “Active”.

The target of a further assay is T1, Protein tyrosine phosphatase type IVA 3 (Homo sapiens, UniProt O75365). The assay can be described thus: Inhibition of human recombinant PRL-3.
T1 sequence (O75365 whole entry): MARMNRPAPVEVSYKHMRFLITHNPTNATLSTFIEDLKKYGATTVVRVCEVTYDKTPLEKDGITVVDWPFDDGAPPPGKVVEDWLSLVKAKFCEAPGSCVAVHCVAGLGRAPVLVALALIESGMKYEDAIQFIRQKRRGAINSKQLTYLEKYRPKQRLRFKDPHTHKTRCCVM
Details: not given
`O=C1NC(=S)S/C1=C\c1cc(Br)ccc1O`: the IC50 (as a rule, the concentration needed to halve the response being measured) stood at 9.5 µM. Same read-out and setting: the value for `N=C(N)c1ccc(OCCCCCOc2ccc(C(=N)N)cc2)cc1` [PENTAMIDINE] was 53.6 µM.

In a further assay the target is T1, Protein tyrosine phosphatase type IVA 3. Description: Inhibition of human recombinant PRL-3 up to 50 uM.
Details: not given
For the compound `O=C1NC(=S)S/C1=C\c1cc(Br)ccc1OCc1cccnc1`, the inhibition result is “inactive”.

For `CS(=O)(=O)Oc1ccc(Br)cc1/C=C1\SC(=S)NC1=O`, the inhibition result was “inactive”.

In the case of `O=C1NC(=O)/C(=C/c2cc(Br)ccc2OCc2ccccc2)S1`, the inhibition result was “inactive”.

For the compound `O=C1NC(=S)S/C1=C\c1ccccc1OCc1ccccc1`, the inhibition entry is “inactive”. For the compound `O=Cc1cc(Br)ccc1O`, the inhibition entry was “inactive”. On the same count and under the same terms, then `CN1C(=O)/C(=C/c2cc(Br)ccc2OCc2ccccc2)SC1=S`, with “inactive”.

(Values after ChEMBL document CHEMBL1148664, “Synthesis and biological evaluation of rhodanine derivatives as PRL-3 inhibitors” (Bioorg Med Chem Lett, 2006).)
